Data on eleven compounds can be found in ChEMBL document CHEMBL1201862, “PubChem BioAssay data set” (2004).

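1) Cells in 96-well plates. 2) Compound, 48 h, 5 concentrations. 3) Linear interpolation between surrounding doses. 4) Unreached endpoint = highest concentration. Abbreviation: GI50, concentration required for 50% inhibition of growth.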 Activity calls are given as the source filed them. Rule as the data show it: active = GI50 up to about 1.1 µM and inactive = higher. Where only a bound is given, the exact number is not on record here.

Common to all, as to experiment: NCI anticancer screen, dose series, 48 h
For assay [1], the system named is NCI/ADR-RES.
Assay [2] deals with NCI-H522.
Assay [3] concerns OVCAR-4.
The subject of assay [4] is SNB-19.
For assay [5], the system named is KM-20L2.
Assay [6] has as its system NCI-H23.
Assay [7] relates to U-251.
Assay [8] has as its system SW-620.
For assay [9], the system named is OVCAR-8.
The subject of assay [10] is K562.
The subject of assay [11] is HOP-62.
The subject of assay [12] is LOX IMVI.
Assay [13] relates to RXF 393.
Assay [14] relates to BT-549.
In assay [15] the test system is T47D.
The subject of assay [16] is ACHN.
The test system of assay [17] is MDA-N.
Assay [18] deals with 786-0.
Assay [19] has as its system TK-10.

Take `CC(=O)C(=Cc1cn(C)c(=O)n(C)c1=O)C(C)=O`: the GI50 in assay [1] is 93.1 µM (inactive); in assay [2] it was 16.8 µM (inactive); in assay [3] it was 105 µM (inactive); in [4], 125 µM (inactive); in [5], 85.7 µM (inactive); in assay [6] it was 69.5 µM (inactive). Further, the GI50 is > 96.8 µM (inactive) in assay [7]; 106 µM (inactive) in assay [8]; 126 µM (inactive) in [9]; 138 µM (inactive) in assay [10]; 137 µM (inactive) in [11]; 71.1 µM (inactive) in assay [12]. For the same compound, in assay [13], the GI50 was 60.1 µM (inactive).
For `COc1ccc(C(C#N)NCCCCCCNC(C#N)c2ccc(OC)cc2)cc1` (stereo not drawn), the GI50 in assay [1], in assay [14], in [2], in [15], in [16] and in assay [3] was > 100 µM (inactive) each time. The GI50 in assay [4], in [17], in assay [6], in assay [7], in assay [18] and in assay [8] was > 100 µM (inactive) throughout. Besides, the GI50 in assay [9], in assay [10], in assay [11], in assay [12], in assay [13] and in [19] was > 100 µM (inactive) in each case.
`CC(C)(Cl)C(Br)CC/C(CBr)=C(/Cl)CCl.CC(C)(Cl)C(Br)CC/C(CBr)=C(\Cl)CCl` (stereo not drawn): the GI50 in assay [1] was 2.21 µM (inactive); in [14], 2.01 µM (inactive); in assay [2] it was 1.45 µM (inactive); in [15], 2.32 µM (inactive); in assay [16] it was 5.64 µM (inactive); in assay [3] it was 2.74 µM (inactive). Moreover, the GI50 in assay [4] was 6.15 µM (inactive); in assay [17] it was 1.8 µM (inactive); in assay [6], 2.43 µM (inactive); in assay [7] it was 1.73 µM (inactive); in assay [18] it was 1.66 µM (inactive); in [8], 2.64 µM (inactive). In addition, the GI50 was 1.75 µM (inactive) in assay [9]; 1.01 µM (active) in [10]; 3.92 µM (inactive) in assay [11]; 1.61 µM (inactive) in assay [12]; 2.14 µM (inactive) in assay [13]; 4.18 µM (inactive) in assay [19].
Take `CC(C)(C)NC(=O)CCC1C(C(=O)NC(C)(C)C)C2(Cl)C(Cl)=C(Cl)C1(Cl)C2(Cl)Cl` (stereo not drawn): the GI50 in [1], in assay [14], in assay [2], in assay [15], in assay [16] and in assay [3] was > 100 µM (inactive) each time. In addition, the GI50 in [4], in [17], in assay [6], in assay [7], in assay [18] and in assay [8] was > 100 µM (inactive) each time. Further, the GI50 in assay [9], in assay [10], in assay [11], in assay [12], in assay [13] and in assay [19] was > 100 µM (inactive) in each case.
Turning to `O=C(/C=C1\C[C@H]2C=Nc3ccccc3C(=O)N2C1)NCCCCCNC(=O)/C=C1\C[C@H]2C=Nc3ccccc3C(=O)N2C1`, the GI50 in assay [1] was 24.3 µM (inactive); in [14] it was 12.6 µM (inactive); in assay [2], 0.726 µM (active); in assay [15], 2.53 µM (inactive); in [16] it was 1.98 µM (inactive); in assay [3] it was 7.53 µM (inactive). For the same compound, the GI50 in [4] was 16.1 µM (inactive); in assay [17], 7 µM (inactive); in assay [6], 9.91 µM (inactive); in [7], 3.03 µM (inactive); in assay [18] it was 1.84 µM (inactive); in assay [8], 2.1 µM (inactive). For the same compound, the GI50 in assay [9] is 2.99 µM (inactive); in assay [10], 2.88 µM (inactive); in [11], 14.2 µM (inactive); in assay [12] it was 1.98 µM (inactive); in assay [13] it was 3.56 µM (inactive); in assay [19] it was 4.32 µM (inactive).
For the compound `N#Cc1c(-c2ccccc2)cc(-c2ccccc2)n(C2OCC(O)C(O)C2O)c1=S` (stereo not drawn), the GI50 in assay [1] is 32.4 µM (inactive); in assay [14], 16.6 µM (inactive); in [2], 18.2 µM (inactive); in assay [15], 4.42 µM (inactive); in assay [16], 18.3 µM (inactive); in [3], 24.5 µM (inactive). The GI50 in [4] was 26.6 µM (inactive); in assay [17], 17.3 µM (inactive); in assay [6], 21.3 µM (inactive); in assay [7] it was 15.3 µM (inactive); in [18], 25.7 µM (inactive); in [8], 16.5 µM (inactive). Moreover, the GI50 in assay [9] is 20.8 µM (inactive); in [10] it was 39 µM (inactive); in assay [11], 25.6 µM (inactive); in assay [12], 18.1 µM (inactive); in assay [13], 18.4 µM (inactive); in assay [19], 27.9 µM (inactive).
For the compound `N=C(N)SCC(=O)O`, the GI50 in assay [1], in [14], in assay [2], in assay [15], in assay [16] and in assay [3] was > 100 µM (inactive) each time. In addition, the GI50 in [4], in assay [17], in assay [6], in [7], in assay [18] and in assay [8] was > 100 µM (inactive) in each case. The GI50 was > 100 µM (inactive) in assay [9]; 5.68 µM (inactive) in assay [10]; > 100 µM (inactive) in assay [11]; > 100 µM (inactive) in assay [12]; > 100 µM (inactive) in assay [13]; > 100 µM (inactive) in [19].
In the case of `COn1cc(CO)c2ccccc21`, the GI50 in assay [1] is > 90.8 µM (inactive); in assay [14] it was > 100 µM (inactive); in [2], 21.5 µM (inactive); in assay [15], 30.8 µM (inactive); in [16], 61.4 µM (inactive); in [3], 34 µM (inactive). Further, the GI50 in assay [4] was > 100 µM (inactive); in [17] it was 97.5 µM (inactive); in assay [6], > 100 µM (inactive); in [7] it was 69.7 µM (inactive); in assay [18] it was > 86.9 µM (inactive); in assay [8] it was 27.5 µM (inactive). Besides, the GI50 in assay [9] is > 100 µM (inactive); in assay [10], 31.2 µM (inactive); in [11] it was > 100 µM (inactive); in assay [12], > 100 µM (inactive); in assay [13], 21.5 µM (inactive); in [19], 5.96 µM (inactive).
Turning to `Cc1ccc(S(=O)(=O)NC(=O)Nc2ccc(C(=O)O)cc2)cc1`, the GI50 in assay [1], in assay [14], in assay [2], in assay [15], in assay [16] and in assay [3] was > 100 µM (inactive) in each case. Further, the GI50 in assay [4], in assay [17], in assay [6], in [7], in assay [18] and in [8] was > 100 µM (inactive) throughout. Besides, the GI50 in [9], in [10], in [11], in assay [12], in assay [13] and in assay [19] was > 100 µM (inactive) throughout.
`O=CNNC(=O)CSc1nc2ccc(I)cc2c(=O)n1Cc1ccccc1`: the GI50 is 31.3 µM (inactive) in assay [1]; 41.7 µM (inactive) in assay [14]; 20.9 µM (inactive) in assay [2]; 33.4 µM (inactive) in assay [15]; 34.8 µM (inactive) in [16]; 40.4 µM (inactive) in [3]. In addition, the GI50 in [4] was 46.6 µM (inactive); in assay [17] it was 32.3 µM (inactive); in [6], 36.7 µM (inactive); in assay [7], 36.6 µM (inactive); in assay [18] it was 31.3 µM (inactive); in assay [8], 44.8 µM (inactive). The GI50 is 46.5 µM (inactive) in assay [9]; 8.79 µM (inactive) in assay [10]; 37.1 µM (inactive) in assay [11]; 25.4 µM (inactive) in assay [12]; 29.1 µM (inactive) in [13]; 38.6 µM (inactive) in [19].
For the compound `Cn1c(=O)c2c(nc3sc4c(n32)C(=O)c2c(O)ccc(O)c2C4=O)n(C)c1=O`, the GI50 is 2.74 µM (inactive) in assay [1]; 5.9 µM (inactive) in [14]; 0.137 µM (active) in assay [2]; 2.43 µM (inactive) in assay [15]; 2.94 µM (inactive) in assay [16]; 1.46 µM (inactive) in [3]. Also, the GI50 in assay [4] is > 53.1 µM (inactive); in assay [17], 1.86 µM (inactive); in assay [6], 7.55 µM (inactive); in assay [7], 14.6 µM (inactive); in assay [18] it was 1.75 µM (inactive); in [8], 0.406 µM (active). Further, the GI50 in [9] is 2.34 µM (inactive); in assay [10], 0.64 µM (active); in assay [11] it was 12.8 µM (inactive); in assay [12], 0.871 µM (active); in [13], 2.68 µM (inactive); in assay [19], 5.97 µM (inactive).
